Results: paper PMC3010111 (Molecular Systems Biology, 2010)

Target: T1, AroB (dehydroquinate synthase) (Escherichia coli, UniProt P07639)
T1 sequence (P07639 1-362): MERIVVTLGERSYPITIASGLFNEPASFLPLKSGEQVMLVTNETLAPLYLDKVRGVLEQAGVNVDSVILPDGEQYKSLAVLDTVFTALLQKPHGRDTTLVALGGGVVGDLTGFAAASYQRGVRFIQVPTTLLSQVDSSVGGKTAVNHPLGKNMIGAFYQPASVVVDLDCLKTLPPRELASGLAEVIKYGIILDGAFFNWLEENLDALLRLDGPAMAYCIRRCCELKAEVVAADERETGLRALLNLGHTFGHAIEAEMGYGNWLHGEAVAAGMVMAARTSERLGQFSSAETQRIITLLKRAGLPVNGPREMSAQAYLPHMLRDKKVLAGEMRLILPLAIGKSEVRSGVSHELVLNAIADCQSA
Experiment: NAD+ reduction
Format: biochemical
Conditions: 2 mM NAD+, 100 mM Tris–HCl pH 7.5, 10°C; 11 μM AroB

O=C(O)[C@H](O)[C@H](O)COP(=O)(O)O [4PE]
NAD+ reduction; single turnover (data not shown): AroB also oxidizes 4PE, but carries out only a single turnover (data not shown).
